Consider six compounds from patent US7232846B2, “Amines as anti-alcoholism agents” (priority 2001, dated 2007).

Series [1] relates to genetically-alcoholic rats (UChB strain). Kind of series: Anti-alcoholism activity in genetically-alcoholic rats (consumption of 10% v/v alcohol). To be noted: for Reduction percentage in the consumption of alcohol (10% v/v), treat.: first 6 h after starting the treatment, vs reference period; for Reduction percentage in the consumption of alcohol (10% v/v), post-treat.: first 6 h after having stopped a 3-day treatment. It counts as in vivo, rat. The text has this: As an animal model of alcoholic humans, adult Wistar rats of both sexes, belonging to the UChB strain were used. This strain of rats is the result of a long selection at the University of Chile, and rats belonging to it are known to be volunteer consumers of 10% (v/v) aqueous alcohol (cf. J. Mardones and N. Segovia-Riquelme, “Thirty two years of selection of rats by ethanol preference”: UChA and UChB strains”, Neurobehav. Toxicol. and Teratol. 1983, vol. 5, pp. 171–178). Thus, the rats used in these experiments can be considered genetically alcoholic.
Rats were kept in individual cages at 22° C., with alternative 12 h periods of light and darkness. Besides unlimited access to food, they had ad libitum access to water and 10% (v/v) aqueous alcohol. All experiments were double-blind, and results were analyzed using common statistical methods. As changes in alcohol consumption might be influenced by the eagerness of food and/or water intake, both the consumption of food and of water were measured and analyzed. However, experimental changes in the consumptions of both food and water were not significant. In each experiment the following three periods of time were considered:
a) A reference period, consisting of the three days previous to treatment. The measured consumption values were used as reference for comparison purposes.
b) A treatment period, consisting of the three days during which aqueous solutions of the tested compounds (obtained from SIGMA) were intra-gastrically administered, always at the same time of the day. Polyamines were administered as aqueous solutions of their corresponding fully-neutralized hydrochlorides, at concentration of 100 mg of the free-amine per 100 ml of water, when doses of 2 mg of amine per kg of rat; and at concentration of 1000 mg/100 ml, When doses of 20 mg/kg. Dansyl derivatives of polyamines were administered as aqueous suspensions of 100 mg of derivative per 100 ml of water, when doses of 4 mg of free-amine per kg of rat.
c) A post-treatment period, consisting of the three days immediate after the treatment period, during which measurement were taken in order to establish the duration of the effect and the reversibility of the changes.
Table 1 summarizes the average results from nine experiments, each one carried out with a set of 8 rats, where several compounds at different doses were used, and measurements of alcohol consumption were done at 6 h after the beginning of the treatment period, and at 6 h after the beginning of the post-treatment period. Figures in the table are differences in 10% (v/v) ethanol consumption between a given consumption during the reference period and the corresponding consumption during the treatment (or post-treatment) period, expressed a percentage of the consumption during the reference period (i.e. divided by this and multiplied by 100). As indicated by the figures, during treatment a significant reduction occurred in all cases; and during post-treatment a significant reduction occurred in all cases but two (those marked “ns”=non significant). Results in the table also indicate that there is a dose-effect relationship in the reduction of alcohol consumption during the treatment period.

Series [2] can be described thus: Assessment of the disulfiram-like adverse effect (blood acetaldehyde after ethanol injection). It counts as in vivo, rat. To be noted: Wistar rats, single 2 mg/kg p.o. 1 h before ethanol, mean ± SEM. As for the experimental part:
Blood samples were taken from the tail of the rat at different times after the injection of the ethanol solution. […] The animals of the disulfiram group received two doses of 300 mg p.o. of disulfiram per kg of rat, 23 h and 17 h before the administration of ethanol. The high concentration of acetaldehyde detected in these groups was expected. […] The animals of the other four groups received a single dose p.o. of 2 mg of the corresponding compound (in the form of 10 mg/100 ml aqueous solutions, which was of the hydrochlorides in the case of polyamines) per kg of rat, 1 h before the administration of ethanol. Figures in the table are mean values (±SEM) of acetaldehyde concentration in blood at the indicated times. It is observed that values of the groups corresponding to the four tested compounds were only slightly above the control ones, but far below the corresponding values of the disulfiram group.

[3] abbreviates: dose 20 mg/kg, ns = non significant.
The mark [4] stands for this setting: dose 2 mg/kg, ns = non significant.

For the compound dansyl putrescine, the “Reduction percentage in the consumption of alcohol (10% v/v), treat.” value (from here on “Reduction percentage … (10% v/v), treat.”) in series [1] (dose 4 mg/kg intra-gastric) stood at 23%. Moreover, the “Reduction percentage in the consumption of alcohol (10% v/v), post-treat.” value (from here on “Reduction percentage … (10% v/v), post-treat.”) in series [1] (dose 4 mg/kg) is recorded as 22%.

Regarding `NCCCN` [1,3-propanediamine], the “Reduction percentage … (10% v/v), treat.” value in series [1] (dose 20 mg/kg intra-gastric) stood at 27%. Moreover, in series [1] (setting [3]), the “Reduction percentage … (10% v/v), post-treat.” value stood at 12%.

As to dansyl spermidine, in series [1] (dose 4 mg/kg intra-gastric), the “Reduction percentage … (10% v/v), treat.” value is 29%. For the same compound, the “Reduction percentage … (10% v/v), post-treat.” value in series [1] (dose 4 mg/kg) amounted to 19%. For the same compound, the “Acetaldehyde concentration in blood” value in series [2] (0.5 h after i.p. 2.76 g/kg ethanol) came out at 150 ± 5 μg/100 ml; in series [2] (2 h after i.p. 2.76 g/kg ethanol), 40 ± 9 μg/100 ml.

On to `NCCCCNCCCN` [spermidine], for which the entries for the “Reduction percentage … (10% v/v), treat.” value in series [1] (dose 2 mg/kg intra-gastric) and in series [1] (dose 20 mg/kg intra-gastric) were 25% and 29%, respectively. Also, the “Reduction percentage … (10% v/v), post-treat.” value in series [1] (setting [4]) is reported as 17%; in series [1] (setting [3]), “ns”.

`NCCCNCCCCNCCCN` [spermine]: the “Reduction percentage … (10% v/v), treat.” value is listed as 27% in series [1] (dose 2 mg/kg intra-gastric) and 42% in series [1] (dose 20 mg/kg intra-gastric). The “Reduction percentage … (10% v/v), post-treat.” value in series [1] (setting [4]) was found to be 29%; in series [1] (setting [3]), 12%.

For `NCCCCN` [putrescine], the “Reduction percentage … (10% v/v), treat.” value is 13% in series [1] (dose 2 mg/kg intra-gastric) and 28% in series [1] (dose 20 mg/kg intra-gastric). Moreover, the “Reduction percentage … (10% v/v), post-treat.” value in series [1] (setting [4]) is on record as “ns”; in series [1] (setting [3]), 13%.
